Results on 22 compounds are retold here after ChEMBL document CHEMBL1909046, “DrugMatrix in vitro pharmacology data”.

For assay [1], the target named is T1, Cathepsin G (Homo sapiens, UniProt P08311).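 Also: inhibition of Cathepsin G enzyme activity, tested on an AMC-conjugated peptide substrate.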
T1 sequence (P08311 whole entry): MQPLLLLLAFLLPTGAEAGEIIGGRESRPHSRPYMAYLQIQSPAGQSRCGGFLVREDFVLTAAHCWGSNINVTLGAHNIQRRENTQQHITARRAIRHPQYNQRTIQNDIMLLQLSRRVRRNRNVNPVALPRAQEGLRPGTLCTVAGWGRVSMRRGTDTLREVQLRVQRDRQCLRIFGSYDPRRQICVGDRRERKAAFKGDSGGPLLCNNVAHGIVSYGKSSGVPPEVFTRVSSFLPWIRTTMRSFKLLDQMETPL
It is filed as tissue-based. The following applies: neutrophil.

Assay [2] addresses T2, Thromboxane-A synthase (Homo sapiens, UniProt P24557).
T2 sequence (P24557 whole entry): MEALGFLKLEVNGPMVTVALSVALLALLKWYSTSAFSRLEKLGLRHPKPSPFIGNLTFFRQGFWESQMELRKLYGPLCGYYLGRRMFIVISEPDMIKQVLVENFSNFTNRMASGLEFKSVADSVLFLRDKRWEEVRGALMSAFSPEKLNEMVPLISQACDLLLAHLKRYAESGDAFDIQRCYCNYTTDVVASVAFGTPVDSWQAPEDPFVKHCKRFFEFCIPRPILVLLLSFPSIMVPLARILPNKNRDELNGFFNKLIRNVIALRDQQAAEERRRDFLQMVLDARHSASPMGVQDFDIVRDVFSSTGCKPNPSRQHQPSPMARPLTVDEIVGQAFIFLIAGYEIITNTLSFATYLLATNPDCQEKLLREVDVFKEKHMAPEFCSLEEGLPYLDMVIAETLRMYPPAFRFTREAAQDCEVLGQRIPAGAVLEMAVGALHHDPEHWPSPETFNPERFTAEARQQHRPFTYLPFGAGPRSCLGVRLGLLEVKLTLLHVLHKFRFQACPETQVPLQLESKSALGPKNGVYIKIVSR
The assay is described as follows: biochemical. The assay is classed as tissue-based, Platelet. The following applies: platelet.

Assay [3] addresses T3, Neuropeptide Y receptor type 2 (Homo sapiens, UniProt P49146).
T3 sequence (P49146 whole entry): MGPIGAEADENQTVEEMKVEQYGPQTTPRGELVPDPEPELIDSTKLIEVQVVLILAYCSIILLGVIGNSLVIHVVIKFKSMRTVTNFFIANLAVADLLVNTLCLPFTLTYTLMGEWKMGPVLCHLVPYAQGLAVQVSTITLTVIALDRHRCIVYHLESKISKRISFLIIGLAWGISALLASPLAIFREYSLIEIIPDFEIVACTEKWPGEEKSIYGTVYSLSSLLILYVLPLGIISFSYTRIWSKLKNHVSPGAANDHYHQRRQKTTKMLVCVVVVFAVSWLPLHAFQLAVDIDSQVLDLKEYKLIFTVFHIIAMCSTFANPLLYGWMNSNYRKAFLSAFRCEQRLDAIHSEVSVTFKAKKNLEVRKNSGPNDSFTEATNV
The assay is classed as cell membranes, KAN-TS, Membrane. The following applies: kan-ts.

Assay [4] has as its target Prostaglandin G/H synthase 1 (Homo sapiens, UniProt P23219). The assay is described as follows: biochemical. It is filed as tissue-based, Platelet. The following applies: platelet.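 Also: inhibition of COX-1 enzyme activity, with arachidonic acid supplied as substrate.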
Assay [5] concerns the target Glycine receptor (Rattus norvegicus, UniProt P22771+P24524+P07727+P20781). It is filed as cell membranes, Wistar, Spinal cord, Membrane.
The target of assay [6] is 5-hydroxytryptamine receptor 1B (Rattus norvegicus, UniProt P28564). It is filed as cell membranes, Wistar, Cerebral cortex, Membrane.
The target of assay [7] is Protein phosphatase 3 catalytic subunit alpha (Homo sapiens, UniProt Q08209). Also on record: species or system Escherichia coli.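 Also: inhibition of calcineurin (PP2B) enzyme activity, measured with DiFMUP as the substrate.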
Also: in other assays of this panel Not Active means under 50% inhibition at 10 µM.

Sequence of Prostaglandin G/H synthase 1 (P23219 whole entry): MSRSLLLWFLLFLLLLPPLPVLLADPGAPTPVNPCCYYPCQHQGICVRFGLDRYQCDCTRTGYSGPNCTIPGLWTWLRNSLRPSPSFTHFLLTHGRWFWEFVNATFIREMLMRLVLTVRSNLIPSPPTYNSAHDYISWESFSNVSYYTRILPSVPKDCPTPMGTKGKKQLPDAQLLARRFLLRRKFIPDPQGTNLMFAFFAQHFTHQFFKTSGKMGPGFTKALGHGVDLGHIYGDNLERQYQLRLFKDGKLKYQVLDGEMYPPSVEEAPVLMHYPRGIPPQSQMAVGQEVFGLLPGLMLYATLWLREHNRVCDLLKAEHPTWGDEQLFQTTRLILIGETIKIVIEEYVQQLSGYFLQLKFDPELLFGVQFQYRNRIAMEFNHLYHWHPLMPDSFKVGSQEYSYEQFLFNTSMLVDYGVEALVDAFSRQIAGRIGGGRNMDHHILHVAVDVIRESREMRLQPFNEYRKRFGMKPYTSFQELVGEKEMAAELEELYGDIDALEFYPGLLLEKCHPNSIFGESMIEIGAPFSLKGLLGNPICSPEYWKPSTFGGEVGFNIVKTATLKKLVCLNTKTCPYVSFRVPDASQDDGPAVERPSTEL
Sequence of 5-hydroxytryptamine receptor 1B (P28564 whole entry): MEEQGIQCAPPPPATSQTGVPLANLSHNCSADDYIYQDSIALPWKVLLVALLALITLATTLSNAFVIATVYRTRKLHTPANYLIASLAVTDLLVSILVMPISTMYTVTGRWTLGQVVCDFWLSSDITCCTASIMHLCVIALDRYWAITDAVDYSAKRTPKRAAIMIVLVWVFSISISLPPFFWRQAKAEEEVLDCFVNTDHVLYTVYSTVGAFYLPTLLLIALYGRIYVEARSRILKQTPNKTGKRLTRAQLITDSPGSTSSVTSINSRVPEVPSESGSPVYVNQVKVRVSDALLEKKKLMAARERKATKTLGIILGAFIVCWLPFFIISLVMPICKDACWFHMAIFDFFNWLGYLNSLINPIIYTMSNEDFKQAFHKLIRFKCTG

Take `N=C(N)NC(=O)Cc1c(Cl)cccc1Cl` [GUANFACINE]: the IC50 result in assay [1], in assay [2], in assay [3], in assay [4], in assay [5] and in assay [6] was “Not Active” throughout. Besides, in assay [7], the IC50 (in general, the midpoint of a concentration-inhibition curve) is reported as “Not Active”.

Consider `NC(=O)C[S+]([O-])C(c1ccccc1)c1ccccc1` (stereo not given) [MODAFINIL], for which the IC50 result in assay [1], in assay [2], in assay [3], in assay [4], in assay [5] and in assay [6] was “Not Active” each time. Besides, the IC50 result in assay [7] is “Not Active”.

`CC(C)(C)NC(=O)[C@H]1CC[C@H]2[C@@H]3CC[C@H]4NC(=O)C=C[C@]4(C)[C@H]3CC[C@]12C` [FINASTERIDE]: the IC50 result in assay [1], in assay [2], in assay [3], in assay [4], in assay [5] and in assay [6] was “Not Active” throughout. Further, in assay [7], the IC50 entry is given as “Not Active”.

Turning to `CC(C)NNC(=O)c1ccncc1` [IPRONIAZID], the IC50 result in assay [1], in assay [2], in assay [3], in assay [4], in assay [5] and in assay [6] was “Not Active” each time. Also, the IC50 entry in assay [7] was “Not Active”.

With GRAMICIDIN, the IC50 entry in assay [1] was “Not Active”; in assay [2] (read-out: IC50), 774 nM; in assay [3], “Not Active”; in assay [4], “Not Active”; in assay [5], “Not Active”; in assay [6], “Not Active”. The IC50 entry in assay [7] was “Not Active”. In addition, the Ki result in assay [1], in assay [3], in assay [4], in assay [5], in assay [6] and in assay [7] was “Not Active” throughout.

On to `CC(=O)[C@@]1(O)CC[C@H]2[C@@H]3CCC4=CC(=O)CC[C@]4(C)[C@H]3CC[C@@]21C` [HYDROXYPROGESTERONE], for which the IC50 entry in assay [1], in assay [2], in assay [3], in assay [4], in assay [5] and in assay [6] was “Not Active” throughout. For the same compound, the IC50 result in assay [7] was “Not Active”.

For the compound `O=C(N/N=C/c1ccc([N+](=O)[O-])o1)c1cc([N+](=O)[O-])cc([N+](=O)[O-])c1O` [NIFURSOL], the IC50 result in assay [1], in assay [2], in assay [3], in assay [4], in assay [5] and in assay [6] was “Not Active” each time. The IC50 entry in assay [7] is listed as “Not Active”.

Take `CC(C)NCC(O)COc1cccc2[nH]ccc12` (stereo not given) [PINDOLOL]: the IC50 entry in assay [1], in assay [2], in assay [3], in assay [4], in assay [5] and in assay [6] was “Not Active” throughout. Further, the IC50 result in assay [7] is recorded as “Not Active”.

As to `Oc1cccc(O)c1O` [PYROGALLOL], the IC50 result in assay [1], in assay [2], in assay [3], in assay [4], in assay [5] and in assay [6] was “Not Active” in each case. Besides, the IC50 entry in assay [7] is “Not Active”.

Regarding `COc1cc2nc(N3CCN(C(=O)c4ccco4)CC3)nc(N)c2cc1OC` [PRAZOSIN], the IC50 entry in assay [1], in assay [2], in assay [3], in assay [4], in assay [5] and in assay [6] was “Not Active” throughout. Further, in assay [7], the IC50 entry was “Not Active”.

Turning to `NNc1nncc2ccccc12` [HYDRALAZINE], the IC50 result in assay [1], in assay [2], in assay [3], in assay [4], in assay [5] and in assay [6] was “Not Active” in each case. The IC50 result in assay [7] is “Not Active”.

As to `C[C@]12C=CC(=O)C=C1CC[C@@H]1[C@@H]2[C@@H](O)C[C@@]2(C)[C@H]1CC[C@]2(O)C(=O)CO` [PREDNISOLONE], the IC50 result in assay [1], in assay [2], in assay [3], in assay [4], in assay [5] and in assay [6] was “Not Active” in each case. Further, the IC50 entry in assay [7] is on record as “Not Active”.

Turning to `NCCCC(O)(P(=O)(O)O)P(=O)(O)O` [ALENDRONIC ACID], the IC50 entry in assay [1], in assay [2], in assay [3], in assay [4], in assay [5] and in assay [6] was “Not Active” in each case. In addition, in assay [7], the IC50 result was “Not Active”.

For the compound `O=C1O[C@H]([C@@H](O)CO)C(O)=C1O` [ASCORBIC ACID], the concentration for half-maximal inhibition (IC50) result in assay [1], in assay [2], in assay [3], in assay [4], in assay [5] and in assay [6] was “Not Active” each time. Also, in assay [7], the IC50 result is recorded as “Not Active”.

As to `C[n+]1ccccc1/C=N/O.[Cl-]` [PRALIDOXIME CHLORIDE], the IC50 result in assay [1], in assay [2], in assay [3], in assay [4], in assay [5] and in assay [6] was “Not Active” throughout. Further, the IC50 entry in assay [7] is “Not Active”.

For `COc1ccc2c3c1O[C@H]1C[C@@H](O)C=C[C@@]31CCN(C)C2` [GALANTAMINE], the IC50 result in assay [1], in assay [2], in assay [3], in assay [4], in assay [5] and in assay [6] was “Not Active” throughout. The IC50 entry in assay [7] is recorded as “Not Active”.

As for `COC1=C(OC)C(=O)C(CCCCCCCCCCO)=C(C)C1=O` [IDEBENONE], the IC50 result in assay [1], in assay [2], in assay [3], in assay [4], in assay [5] and in assay [6] was “Not Active” each time. Also, in assay [7], the IC50 result is listed as “Not Active”.

In the case of `CCC1(CCC(C)C)C(=O)NC(=O)NC1=O` [AMOBARBITAL], the IC50 result in assay [1], in assay [2], in assay [3], in assay [4], in assay [5] and in assay [6] was “Not Active” each time. The IC50 result in assay [7] is reported as “Not Active”.

As to `COc1ccc2[nH]cc(CCNC(C)=O)c2c1` [MELATONIN], the IC50 entry in assay [1], in assay [2], in assay [3], in assay [4], in assay [5] and in assay [6] was “Not Active” throughout. In addition, the IC50 result in assay [7] is reported as “Not Active”.

With `O=C/C=C/c1ccccc1`, the IC50 entry in assay [1], in assay [2], in assay [3], in assay [4], in assay [5] and in assay [6] was “Not Active” in each case. Besides, the IC50 result in assay [7] is “Not Active”.

In the case of `CN(C)CC[C@@H](c1ccc(Cl)cc1)c1ccccn1` [DEXCHLORPHENIRAMINE], the IC50 entry in assay [1], in assay [2], in assay [3], in assay [4], in assay [5] and in assay [6] was “Not Active” in each case. In assay [7], the IC50 entry was “Not Active”.

`COc1ccc2cc3[n+](cc2c1OC)CCc1cc2c(cc1-3)OCO2.[Cl-]` [BERBERINE CHLORIDE]: the IC50 result in assay [1], in assay [2], in assay [3], in assay [4], in assay [5] and in assay [6] was “Not Active” each time. Further, the IC50 entry in assay [7] is “Not Active”.
